Test results as given in patent US20240141375A1, “LENTIVIRUS FOR GENERATING CELLS EXPRESSING ANTI-CD19 CHIMERIC ANTIGEN RECEPTOR” (Umoja Biopharma, Inc., priority 2021, published 2024).

Legend:
[1] = tested on: Bead-activated PBMCs; assay: Payload gene order: 2A detection, rapamycin enrichment and expansion of CAR-T cells; format: cell-based; conditions: by day 22; 10 nM rapamycin
Experimental: The aim of this study was to determine the effect of order on the detectability and function of a lentiviral payload comprised of the following functional elements: Frb-RACR, and αCD19-CAR. The Frb-RACR element provides a selective advantage to cells when rapamycin is added to the culture. The αCD19-CAR element provides targeting of T cells to CD19+ target cells. The two elements together create CAR-T cells that enrich with rapamycin and are cytotoxic to CD19+ target cells. Two payload designs evaluated differ only in the order in which elements are expressed in the polycistronic transcript. This study tested functional aspects of the payloads in both orientations to see if differences in expression were affecting 1) payload detection by flow cytometry (2A antibody), 2) CAR-T cell rapamycin response, and 3) CAR-T cell CD19+ cell cytotoxicity.
Two payload designs evaluated: • 1. MND promoter—FRB-P2A-RACRβ-P2A-RACRγ-P2A-CAR (SEQ ID NO: 81) • 2. MND promoter—CAR-P2A-FRB-P2A-RACRβ-P2A-RACRγ (SEQ ID NO: 61)
Expansion of CAR-T cells was measured using cell counts, culture volume, and flow cytometry population frequencies to estimate total CAR-T cells. Gating requirements were different for d15 and 22; however, in each case, un-transduced cells were used as a biological negative control. […]

[2] = tested on: Nalm-6 GFP FFLUC cells; assay: Nalm-6 systemic tumor model in PBMC-humanized mice; set-up: species or system MHC I/II KO NSG female mice; conditions: mouse, in vivo
Experimental: The aim of this study is to evaluate the efficacy of UB-VV100 and the effects of rapamycin dosing after UB-VV100 administration in a Nalm-6 systemic tumor model in PBMC-humanized mice. The UB-VV100 Viral particles comprised SEQ ID NOs: 121, 128, 131, and 132.
Lentivirus was prepared using adherent production and tiered on 293T cells by flow cytometry. Nalm-6 GFP FFLUC cells expressing luciferase and GFP were obtained from the Jensen lab, SCRI, cultured by Umoja Biopharma, and delivered in PBS for injection.
24 MHC I/II KO NSG female mice were used in the study. On study day −5 (D-5) mice were implanted with 0.5 million Nalm-6 cells via retroorbital injection.
At study day −1 mice where humanized with 10 million PBMC via IP injection. The same day all mice were imaged with an IVIS imager 15 minutes after d-Luciferin injection (15 mg/kg) to detect Nalm-6 disease burden. All mice from each tumor group were randomized according to their tumor bioluminescence (Total Flux) levels into 4 cohorts according to the Table 8 below.
At study day 0 mice from groups 3 and 4 were treated IP with 20 million viral particles of UB-VV100 in 500 ul of PBS. […]
Percentage of body weight loss was monitored during the study (FIG. 34B). […] Bone marrow, spleen, peripheral blood and tumor were collected, processed into a single cell suspension, and analyzed by flow cytometry.

[3] = tested on: unstimulated human PBMCs; assay: T cell activation (CD25) in PBMCs after vector addition, flow cytometry; format: cell-based; conditions: 4 days after transduction; VT103 mCherry vectors 5 ul or 25 ul; Blinatumomab 1 ng/ml
Experimental: PBMCs were thawed, resuspended into 10 ml RPMI complete media, and the PBMCs were diluted to 1e6 cells/ml in complete RPMI media. IL-2 was added to a final concentration of 50U/ml. PBMCs were separated into 3× groups of 15 ml each for various stimulations: • Group #1—Blinatumomab added to a final concentration of 1 ng/ml • Group #2-15e6 αCD3/αCD28 Dynabeads added • Group #3—IL-2 only
For each group, 5 ml of stimulation solution was added to 3× wells of Non-TC treated 6 well plate and incubated at 37° C. for 48 hours. Beads were removed from applicable wells, cells were counted and pelleted. Cells were then resuspended in fresh complete RPMI media at 1e6 cells/ml with IL-2 at a final concentration of 50U/ml. 1 ml (1e6 cells) was added to the wells of a Non TC-treated 12 well plate. […]
After 4 days, cells were resuspended with 200 ul into wells in a 96 well V-bottom plate. […] Cells were resuspended in 50 ul of surface antibody cocktail (Anti-CD3-PerCP, Anti-CD19-FITC, Anti-CD56-APC, and Anti-CD25-BV421), incubated for 20 min at 4° C., washed in 200 ul FACS buffer, and resuspended in 100 ul FACS buffer and analyzed by flow cytometry. […]
(§1) Each group was incubated at 37° C. overnight. Beads were removed from applicable wells, cells were counted and pelleted. […]
as §1

Molecule	expansion of αCD19-CAR-T cells over non-rapamycin treated cells [1] [fold]	survival [2] [study day]	CD25 expression on T cells (activation) [3]
CO[C@H]1C[C@@H]2CC[C@@H](C)[C@@](O)(O2)C(=O)C(=O)N2CCCC[C@H]2C(=O)O[C@H]([C@H](C)C[C@@H]2CC[C@@H](O)[C@H](OC)C2)CC(=O)[C@H](C)/C=C(\C)[C@@H](O)[C@@H](OC)C(=O)[C@H](C)C[C@H](C)/C=C/C=C/C=C/1C [rapamycin]	4.3	≤ 20	–
Blinatumomab: Bispecific T-cell engager with anti-CD3 moiety, used as PBMC stimulus	–	–	potently activated the T cells
